In US8889744B2, “Bis-trifluoromethyl honokiol analogs and their use in treating cancers” (priority 2009, dated 2014):
Entries after “also recorded” stand apart in the source; their conditions may differ.

Assays:
[1] = tested on: A375 human melanoma cells; assay: Human melanoma xenograft A375 in nude mice; type: in vivo; conditions: 120 mg/kg daily intraperitoneal, FIG. 4
Method: The compound was evaluated in conjunction with control, and with a different honokiol analogue, the bis-dichloroacetate. A375 human melanoma cells were injected into nude mice (3 mice pre treatment group) and received vehicle (intralipid) or 120 mg/kg honokiol bisdichloroacetate ester (honokiol DCA) or hexafluoro, via daily intraperitoneal administration. The volume of the tumors was calculated by the formula volume=(width squared times length) 0.52, where width is the shortest dimension.

[2] = tested on: SVR cells; assay: SVR tumor volume, SVR cells grown in DMEM with 0.5% or 10% FBS; type: in vivo, mice; conditions: FIG. 3
Method: FIG. 3 is a chart showing the effect of hexafluoro-honokiol on SVR tumor volume […] over time (days) in mice, as compared to control, where the SVR cells were grown in 0.5 and 10% serum Dulbecco's minimal essential media (DMEM).
Having shown that hexafluoro-honokiol appears to show better results than tacrolomis, a further experiment was conducted using SVR cells grown in Dulbecco's Modified Eagle Media (DMEM) supplemented with 0.5% or 10% fetal bovine serum (FBS), according to the techniques described in Bai, et al., J. Biol. Chem., Vol. 278, Issue 37, 35501-35507, Sep. 12, 2003.

[3] = tested on: SVR angiosarcoma cells; assay: In vivo tumorigenesis, SVR tumor model in mice
Method: SVR (5×10^5) cells were injected into the flank of 6-week-old nude male mice obtained from Charles River Breeding Laboratories. When tumors became visible at approximately 1 week after inoculation, mice received 3 mg/day hexafluoro-honokiol, tacrolomis, or vehicle control suspended in 20% Intralipid (Baxter Healthcare, Deerfield, Ill.) in a total volume of 0.3 ml intraperitoneally. Tumor volume was measured using the formula (width^2×length)×0.52 where width represents the shortest dimension.
The efficacy of the hexafluoro-honokiol compound was then tested in an SVR tumor model in mice, and compared to that of a control and to Tacrolimis. The assay was performed according to the conditions in J Biol Chem. 2003 Sep. 12; 278(37):35501-7, the contents of which are hereby incorporated by reference.
Nude mice injected with 0.5 million SVR angiosarcoma cells were treated with hexafluoro-honokiol (120 mg/kg), Tacrolimis, or control (Cancer Res. 2009 Jun. 1; 69(11):4621-8), with a total of 4 mice in each group. […] The degree of inhibition with hexafluoro-honokiol was more marked than with the same dose of Tacrolimis.

[4] = tested on: Rac-GTP (active Rac); assay: Rac activation pull-down assay (GST-PBD, Western blot); type: cell-based; conditions: DAOY medulloblastoma cells, FIG. 1
Method: […] Cells were lysed with ice-cold lysis buffer, containing 25 mM HEPES pH 7.5, 150 mM NaCl, 1% NP-40, 10 mM MgCl2, 1 mM EDTA, 10% glycerol and protease inhibitors. A sample was kept for total Rac and Ras level analysis.
The remaining lysate was used for the pull-down (Western Blot) assay to isolate the GTP-loaded forms of Rac or Ras using the p21-binding domain of PAK1 fused to glutathione S-transferase (GST-PBD) (Glaven et al., J. Biol. Chem., 274, 2279-2285 (1999)). The GST-PBD fusion protein was prepared as previously described (Abassi, Y. and Vuori, K. EMBO J. 21, 4571-4582 (2002)).
Activated (GTP-bound) Rac was affinity-precipitated with p21-activated kinase-1 protein binding domain peptide, which binds only to Rac-GTP and not Rac-GDP. p21-Activated kinase-1 protein binding domain-agarose (7.5 μg/mg cell lysate) was added, and the reaction mixture was gently rocked at 4° C. for 60 min. The agarose beads were collected by pulsing for 5 s in a microcentrifuge at 14,000×g, and the beads were washed three times with 0.5 ml of lysis buffer.
The agarose beads were resuspended in 40 μl of 1×SDS sample buffer and boiled for 5 min. The supernatant was separated by SDS-PAGE on a 12% gel, and the proteins were transferred to nitrocellulose membrane. […] After incubation with the secondary antibody, Rac and Ras were detected by enhanced chemiluminescence.

[5] = tested on: angiosarcoma; conditions: nude mice; cited from earlier work
[6] = tested on: SVR cells; conditions: in vitro; cited from earlier work
[7] = tested on: primary human endothelial cells; conditions: cited from earlier work

Row | Compound | efficacy of the two compounds compared with each other [1] | tumor volume versus control [1] | tumor volume over time versus control [2] | weight loss or other toxicities ([3]; 3 mg/day intraperitoneally in 20% Intralipid) | tumor volume versus control ([3]; 120 mg/kg (3 mg/day) intraperitoneally, FIG. 2) | degree of inhibition of tumor volume compared with Tacrolimis ([3]; same dose, FIG. 2) | levels of total Rac [4] | levels of Rac-GTP (active Rac) ([4]; with PDGF-BB) | efficacy against angiosarcoma [5] | anti-proliferative activity against SVR cells [6] | inhibition of primary human endothelial cells compared with fibroblasts [7]
1 | C=CCc1ccc(OC(=O)C(Cl)Cl)c(-c2ccc(OC(=O)C(Cl)Cl)c(CC=C)c2)c1 [honokiol bis-dichloroacetate, honokiol bisdichloroacetate ester, reference compound] | comparable efficacy | significantly better than control | – | – | – | – | – | – | – | – | –
2 | C=CCc1cc(C(c2ccc(O)c(CC=C)c2)(C(F)(F)F)C(F)(F)F)ccc1O [hexafluoro-honokiol, 2,2-bis(3-allyl-4-hydroxy-phenyl)-1,1,1,3,3,3-hexafluoropropane] | comparable efficacy | significantly better than control | significantly better than control | No weight loss or other toxicities were observed | significantly different at all time points | more marked | not decreased | significantly decreased; also recorded: disappearance of RAC-GTP | – | – | –
3 | honokiol | – | – | – | – | – | – | – | – | highly effective | potent anti-proliferative activity | preferential inhibition
